In the NIST ThermoML archive (doi:10.1021/je200213h):

Assays:
[1] = xn = mol fraction of the nth substance listed; conditions: 101 kPa, Liquid, Capillary tube (Ostwald / Ubbelohde) method
[2] = 101.33 kPa, Liquid, Capillary tube (Ostwald / Ubbelohde) method

CCC(C)(C)C [2,2-dimethylbutane] + CCCCCl
kinematic viscosity [m2/s], [1]
Conditions | 283.15 K | 298.15 K | 313.15 K
x1 = 0.0524 | 5.594e-07 | 4.802e-07 | 4.231e-07
x1 = 0.101 | 5.603e-07 | 4.809e-07 | 4.239e-07
x1 = 0.1995 | 5.627e-07 | 4.822e-07 | 4.253e-07
x1 = 0.3081 | 5.663e-07 | 4.846e-07 | 4.275e-07
x1 = 0.3985 | 5.705e-07 | 4.867e-07 | 4.294e-07
x1 = 0.499 | 5.76e-07 | 4.898e-07 | 4.322e-07
x1 = 0.5984 | 5.822e-07 | 4.943e-07 | 4.362e-07
x1 = 0.7015 | 5.899e-07 | 5e-07 | 4.409e-07
x1 = 0.7986 | 5.992e-07 | 5.063e-07 | 4.463e-07
x1 = 0.9002 | 6.098e-07 | 5.133e-07 | 4.52e-07
x1 = 0.9487 | 6.16e-07 | 5.17e-07 | 4.55e-07

CC(C)(C)Cl [2-chloro-2-methylpropane]
[2]
Conditions | kinematic viscosity [m2/s]
283.15 K | 6.992e-07
298.15 K | 5.696e-07
313.15 K | 4.77e-07

CC(C)(C)Cl [2-chloro-2-methylpropane] + CCC(C)CC
kinematic viscosity [m2/s], [1]
Conditions | 283.15 K | 298.15 K | 313.15 K
x2 = 0.0496 | 6.755e-07 | 5.548e-07 | 4.681e-07
x2 = 0.0995 | 6.538e-07 | 5.4e-07 | 4.576e-07
x2 = 0.2046 | 6.148e-07 | 5.14e-07 | 4.4e-07
x2 = 0.3023 | 5.848e-07 | 4.937e-07 | 4.256e-07
x2 = 0.405 | 5.592e-07 | 4.767e-07 | 4.14e-07
x2 = 0.5064 | 5.394e-07 | 4.637e-07 | 4.051e-07
x2 = 0.6033 | 5.235e-07 | 4.536e-07 | 3.984e-07
x2 = 0.7038 | 5.114e-07 | 4.462e-07 | 3.933e-07
x2 = 0.8012 | 5.026e-07 | 4.41e-07 | 3.9e-07
x2 = 0.9018 | 4.964e-07 | 4.377e-07 | 3.881e-07
x2 = 0.9514 | 4.946e-07 | 4.372e-07 | 3.88e-07

CC(C)(C)Cl [2-chloro-2-methylpropane] + CCCCCC
kinematic viscosity [m2/s], [1]
Conditions | 283.15 K | 298.15 K | 313.15 K
x2 = 0.0495 | 6.722e-07 | 5.527e-07 | 4.671e-07
x2 = 0.0989 | 6.489e-07 | 5.369e-07 | 4.565e-07
x2 = 0.2019 | 6.091e-07 | 5.105e-07 | 4.391e-07
x2 = 0.2987 | 5.81e-07 | 4.916e-07 | 4.266e-07
x2 = 0.4043 | 5.575e-07 | 4.756e-07 | 4.162e-07
x2 = 0.4985 | 5.415e-07 | 4.651e-07 | 4.095e-07
x2 = 0.6024 | 5.287e-07 | 4.571e-07 | 4.048e-07
x2 = 0.7017 | 5.203e-07 | 4.516e-07 | 4.019e-07
x2 = 0.7996 | 5.151e-07 | 4.489e-07 | 4.009e-07
x2 = 0.9025 | 5.123e-07 | 4.478e-07 | 4.016e-07
x2 = 0.9498 | 5.119e-07 | 4.483e-07 | 4.023e-07

CC(C)(C)Cl [2-chloro-2-methylpropane] + CCCCCCC
kinematic viscosity [m2/s], [1]
Conditions | 283.15 K | 298.15 K | 313.15 K
x2 = 0.0519 | 6.84e-07 | 5.603e-07 | 4.741e-07
x2 = 0.1021 | 6.722e-07 | 5.532e-07 | 4.711e-07
x2 = 0.2015 | 6.546e-07 | 5.438e-07 | 4.675e-07
x2 = 0.3006 | 6.44e-07 | 5.389e-07 | 4.666e-07
x2 = 0.3997 | 6.391e-07 | 5.38e-07 | 4.679e-07
x2 = 0.5027 | 6.376e-07 | 5.391e-07 | 4.699e-07
x2 = 0.6011 | 6.397e-07 | 5.434e-07 | 4.735e-07
x2 = 0.7014 | 6.441e-07 | 5.489e-07 | 4.78e-07
x2 = 0.8007 | 6.504e-07 | 5.572e-07 | 4.832e-07
x2 = 0.8966 | 6.591e-07 | 5.652e-07 | 4.894e-07
x2 = 0.9518 | 6.651e-07 | 5.706e-07 | 4.944e-07

CCC(C)Cl (centres undefined) [2-chlorobutane]
[2]
Conditions | kinematic viscosity [m2/s]
283.15 K | 5.237e-07
298.15 K | 4.603e-07
313.15 K | 4.049e-07

CCC(C)Cl (centres undefined) [2-chlorobutane] + CCC(C)CC
kinematic viscosity [m2/s], [1]
Conditions | 283.15 K | 298.15 K | 313.15 K
x2 = 0.0518 | 5.193e-07 | 4.574e-07 | 4.031e-07
x2 = 0.101 | 5.142e-07 | 4.542e-07 | 4.004e-07
x2 = 0.2014 | 5.066e-07 | 4.483e-07 | 3.958e-07
x2 = 0.3025 | 4.995e-07 | 4.431e-07 | 3.919e-07
x2 = 0.4027 | 4.943e-07 | 4.39e-07 | 3.885e-07
x2 = 0.4998 | 4.906e-07 | 4.362e-07 | 3.865e-07
x2 = 0.6043 | 4.881e-07 | 4.345e-07 | 3.851e-07
x2 = 0.7008 | 4.87e-07 | 4.34e-07 | 3.844e-07
x2 = 0.8004 | 4.874e-07 | 4.337e-07 | 3.847e-07
x2 = 0.8981 | 4.897e-07 | 4.344e-07 | 3.858e-07
x2 = 0.9481 | 4.911e-07 | 4.356e-07 | 3.868e-07

CCC(C)Cl (centres undefined) [2-chlorobutane] + CCCCCC
kinematic viscosity [m2/s], [1]
Conditions | 283.15 K | 298.15 K | 313.15 K
x1 = 0.0509 | 5.186e-07 | 4.579e-07 | 4.034e-07
x1 = 0.1002 | 5.147e-07 | 4.548e-07 | 4.012e-07
x1 = 0.1802 | 5.09e-07 | 4.501e-07 | 3.98e-07
x1 = 0.3029 | 5.025e-07 | 4.448e-07 | 3.948e-07
x1 = 0.4045 | 4.989e-07 | 4.42e-07 | 3.932e-07
x1 = 0.4991 | 4.975e-07 | 4.408e-07 | 3.926e-07
x1 = 0.5974 | 4.968e-07 | 4.401e-07 | 3.926e-07
x1 = 0.6992 | 4.982e-07 | 4.406e-07 | 3.939e-07
x1 = 0.7996 | 5.007e-07 | 4.419e-07 | 3.961e-07
x1 = 0.8981 | 5.055e-07 | 4.447e-07 | 3.993e-07
x1 = 0.9477 | 5.086e-07 | 4.465e-07 | 4.015e-07

CCC(C)Cl (centres undefined) [2-chlorobutane] + CCCCCCC
kinematic viscosity [m2/s], [1]
Conditions | 283.15 K | 298.15 K | 313.15 K
x1 = 0.0506 | 5.287e-07 | 4.649e-07 | 4.086e-07
x1 = 0.0989 | 5.334e-07 | 4.686e-07 | 4.121e-07
x1 = 0.2012 | 5.44e-07 | 4.78e-07 | 4.202e-07
x1 = 0.3016 | 5.558e-07 | 4.876e-07 | 4.283e-07
x1 = 0.3997 | 5.677e-07 | 4.978e-07 | 4.37e-07
x1 = 0.4984 | 5.812e-07 | 5.087e-07 | 4.461e-07
x1 = 0.5994 | 5.966e-07 | 5.206e-07 | 4.558e-07
x1 = 0.6994 | 6.128e-07 | 5.331e-07 | 4.652e-07
x1 = 0.7996 | 6.304e-07 | 5.467e-07 | 4.757e-07
x1 = 0.9006 | 6.496e-07 | 5.609e-07 | 4.866e-07
x1 = 0.9503 | 6.6e-07 | 5.684e-07 | 4.927e-07

CCC(C)CC [3-methylpentane]
[2]
Conditions | kinematic viscosity [m2/s]
283.15 K | 4.928e-07
298.15 K | 4.366e-07
313.15 K | 3.881e-07

CCC(C)CC [3-methylpentane] + CCCCCl
kinematic viscosity [m2/s], [1]
Conditions | 283.15 K | 298.15 K | 313.15 K
x1 = 0.0518 | 5.496e-07 | 4.734e-07 | 4.175e-07
x1 = 0.094 | 5.448e-07 | 4.704e-07 | 4.155e-07
x1 = 0.2038 | 5.326e-07 | 4.622e-07 | 4.088e-07
x1 = 0.304 | 5.228e-07 | 4.553e-07 | 4.036e-07
x1 = 0.4059 | 5.143e-07 | 4.5e-07 | 3.988e-07
x1 = 0.5021 | 5.075e-07 | 4.453e-07 | 3.952e-07
x1 = 0.5999 | 5.017e-07 | 4.411e-07 | 3.921e-07
x1 = 0.7043 | 4.97e-07 | 4.382e-07 | 3.896e-07
x1 = 0.8049 | 4.945e-07 | 4.365e-07 | 3.884e-07
x1 = 0.9038 | 4.928e-07 | 4.351e-07 | 3.879e-07
x1 = 0.9492 | 4.928e-07 | 4.355e-07 | 3.877e-07

CCCCCCC [heptane]
[2]
Conditions | kinematic viscosity [m2/s]
283.15 K | 6.697e-07
298.15 K | 5.754e-07
313.15 K | 4.986e-07

CCCCCC [hexane]
[2]
Conditions | kinematic viscosity [m2/s]
283.15 K | 5.125e-07
298.15 K | 4.493e-07
313.15 K | 4.039e-07
